Test results: patent US4673675A, “1-(2-pyridyl) 4-cycloalkylmethyl piperazines having cardiotropic activity” (Innothera, priority 1984, dated 1987)

How the values were obtained:
[1] = Toxicity by a single intravenous administration in mice; assay type: in vivo; settings: mouse, in vivo; single intravenous administration, mice; Litchfield and Wilcoxon; read-out: LD50 (95% confidence limit)
Protocol: (§1) The toxicity of the compounds of the invention was also tested. It concerns more precisely the test of toxicity by a single administration made for all the compounds on male mice, E.O.P.S. of SWISS strain (5 animals per batch).
(§2) The compounds under test were solubilized in a […] aqueous solution of NaCl, at various concentrations and the solutions obtaoned were injected intravenously at the rate of 10 ml.kg^-1 of body weight.
(§3) The administration was made in 20 seconds, the animals being kept under clinical observation for 3 hours after administration, then daily for 7 days.

[2] = test system: isolated right auricle of a guinea pig; test: Chronotropic action (bradycardizing effect) on the isolated right auricle of a guinea pig; settings: 1·10^-4 g·ml^-1, 30 minutes contact, % reduction of beats/minute; for inhibition at 100 µg/mL: Cavia porcellus, 0.5 h
Protocol: Guinea pigs of either sex were killed with a blow and bled, the right auricle was swiftly removed and immediately immersed in a Krebs-Henseleit solution, thermostatically controlled to 36° C.±0.5° C. and aerated with a mixture of O2 and CO2 (95% and 5%). The preparation was connected to an isometric myograph (F-50 Narco) then to a recording system (Physiograpg M-K III--Narco).
A 60 minute delay was required for ensuring chronotropic action stability.
The compounds (I) of the invention and the pharmaceutically acceptable salts thereof were added to the nutritive medium in a concentration of 1.10^-4 g.ml^-1 and left in contact with the auricle for 30 minutes. The action was evaluated by the percentage reduction of the number of beats/minute (beat/min.) before administration of the compound under test.

[3] = test system: male mice, E.O.P.S. of SWISS strain; test: Toxicity by a single intravenous administration in mice; assay type: in vivo; settings: single i.v. administration; symptoms observed at the dose where there was no mortality
Protocol: as §1, §2, §3

[4] = test system: cardiac hemodynamics of anaesthetized dogs; test: Cardiac hemodynamics in dogs anaesthetized with Nembutal, closed thorax; assay type: in vivo, dog
Protocol: (§4) The positive inotropic effect of compounds (I) of the invention and the pharmaceutically acceptable salts thereof were further tested on the cardiac dynamics of an anaesthetized animal and on a wakeful chronically implanted animal.
(§5) a. Test on a dog anaesthetized with Nembutal
(§6) Two test protocols were carried out, one on a dog with open thorax and the other on a dog with closed thorax. The left intraventricular pressure (PIVG) and aortic pressure (supra sigmoid) (PAO) were measured with high fidelity micro-sensors (Millar 5F), the first derivative of the left ventricular pressure (dP/dt) was recorded as well as the electrocardiogram. The instantaneous alveolar PCO2 was continuously measured. Finally, different blood flow rates were measured, namely the femoral and carotid flow rates in the animals with closed thorax and the aortic and coronary flow rates in those on which a thoracotomy had been performed. These different rates were measured by the electro-magnetic method.
An analysis of the dose/effect relation on three dogs (see results shown in table V below) confirmed the results obtained on dogs with open thorax for compound 1a.

[5] = target: T1, isolated left auricle of a guinea pig (cardiac inotropic function β1) (Cavia porcellus, UniProt H0W3H1); test: Positive inotropic effect: contractile force of the isolated left auricle of a guinea pig
T1 construct: the left auricle being swiftly removed and immersed immediately in a Krebs-Henseleit solution; from tissue; host or cells: isolated left auricle of guinea pigs of either sex
T1 sequence (H0W3H1 1-470): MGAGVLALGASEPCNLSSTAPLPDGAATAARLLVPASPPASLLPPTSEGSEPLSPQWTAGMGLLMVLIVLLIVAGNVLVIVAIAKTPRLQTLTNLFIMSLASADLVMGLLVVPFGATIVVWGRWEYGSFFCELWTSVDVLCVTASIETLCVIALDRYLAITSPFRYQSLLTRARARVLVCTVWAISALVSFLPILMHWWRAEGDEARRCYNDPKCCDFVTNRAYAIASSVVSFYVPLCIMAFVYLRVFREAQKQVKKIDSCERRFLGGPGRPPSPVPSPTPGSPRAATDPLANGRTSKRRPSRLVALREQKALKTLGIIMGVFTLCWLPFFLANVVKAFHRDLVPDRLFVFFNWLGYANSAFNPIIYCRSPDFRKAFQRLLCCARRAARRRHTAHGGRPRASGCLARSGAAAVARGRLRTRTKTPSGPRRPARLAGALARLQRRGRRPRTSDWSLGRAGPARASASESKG
Excerpt: The in vitro study was made on the contractile force of the isolated left auricle of a guinea pig. The technique used was that of P. LUMBEY et Coll. […] It allowed the cardiac inotropic function β1 to be studied.
The preparation was connected to an isometric myograph (F-50 Narco), then to a recording system (Physiograph M-K III Narco). For the whole duration of the test the auricle was electrically stimulated by a neurostimulator (Equipement Industriel II) at the frequence of 90 to 120 beats/min.

[6] = test system: cardiac hemodynamics in anaesthetized dogs; test: Cardiac hemodynamics in dogs anaesthetized with Nembutal, open thorax; assay type: in vivo, dog
Protocol: as §4, §5, §6

[7] = test system: cardiac hemodynamics in chronically implanted wakeful dogs; test: Cardiac hemodynamics in chronically implanted wakeful dogs; assay type: in vivo, dog
Protocol: as §4
b. Test on chronically implanted wakeful dogs
The compounds were tested orally and intravenously on dogs previously implanted with a pressure probe placed in the left ventricle (Janssen) and a Doppler rate sensor placed on the aorta, the tests being carried out at the minium 8 days after implantation.

[8] = 0.5 mg·kg^-1 i.v., closed thorax

CCN(CC)CC(C)N1CCN(c2ccccn2)CC1 (stereo not drawn) [Compound 13]
LD50 at 168 h [1]: 76 mg/kg
Reduction of the chronotropic effect [2]: Arrhythmia

COc1cc(CN2CCN(c3ccccn3)CC2)cc(OC)c1OC [Compound 17]
LD50 at 168 h [1]: 130 mg/kg
inhibition at 100 µg/mL [2]: 31%

c1ccc(N2CCN(CC3CCCCC3)CC2)nc1 [Compound 3]
LD50 at 168 h [1]: 81 mg/kg
Clinical symptomatology [3]: Hypersensitivity, stereotypy
inhibition at 100 µg/mL [2]: 13%

CC1CN(CCCN2CCN(c3ccccn3)CC2)CC(C)O1 (stereo not drawn) [Compound 12]
LD50 at 168 h [1]: 149 mg/kg
inhibition at 100 µg/mL [2]: 0%

CCN(CC)CCCN1CCN(c2ccccn2)CC1 [Compound 7]
LD50 at 168 h [1]: 96 mg/kg
Clinical symptomatology [3]: Cyanosis, apnoea
inhibition at 100 µg/mL [2]: 16%

c1ccc(N2CCN(CCN3CCCCCC3)CC2)nc1 [Compound 6]
LD50 at 168 h [1]: 84 mg/kg
Reduction of the chronotropic effect [2]: Arrhythmia

O=C(CN1CCN(c2ccccn2)CC1)Nc1cccc(F)c1 [Compound 14]
LD50 at 168 h [1]: 129 mg/kg
Clinical symptomatology [3]: Apnoea, sedation
inhibition at 100 µg/mL [2]: 18%

c1ccc(N2CCN(CCCN3CCOCC3)CC2)nc1 [Compound 11]
Reduction of the chronotropic effect [2]: Arrhythmia

O=C(CN1CCN(c2ccccn2)CC1)Nc1cccc(C(F)(F)F)c1 [Compound 16]
LD50 at 168 h [1]: 109 mg/kg
inhibition at 100 µg/mL [2]: 18%

c1ccc(N2CCN(CCCN3CCCCCC3)CC2)nc1 [Compound 10]
LD50 at 168 h [1]: 74 mg/kg
inhibition at 100 µg/mL [2]: 0%

O=C(CN1CCN(c2ccccn2)CC1)Nc1cc(F)cc(F)c1 [Compound 15]
inhibition at 100 µg/mL [2]: 0%

c1ccc(N2CCN(CC3CC3)CC2)nc1 [Compound 1a, 1-(2-pyridyl) 4-cyclopropylmethyl piperazine]
LD50 at 168 h [1]: 47 mg/kg
inhibition at 100 µg/mL [2]: 24%
P.Ao m (average aortic pressure) modification [4, 8]: +11%
PtdVG (left ventricular telediastolic pressure) modification [4, 8]: -35%
P.Ao m (average aortic pressure) modification ([4]; 2 mg·kg^-1 i.v., closed thorax): +8%
PtdVG (left ventricular telediastolic pressure) modification ([4]; 2 mg·kg^-1 i.v., closed thorax): -31%
dP/dt+ (first derivative of the left ventricular pressure) modification ([4]; 2 mg·kg^-1 i.v., closed thorax): +28%
respiratory analeptic effect ([4]; anaesthetized dogs, i.v.): appreciable and durable respiratory analeptic effect
duration of the positive inotropic effect ([4]; i.v., closed thorax): exceeds three
dose at which the acme of the positive inotropic effect appeared ([4]; i.v., closed thorax, increasing the dose did not increase the effect): 0.5 mg/kg
Emax ([5]; guinea pig, read-out: α (intrinsic activity)): 60 ± 30%
EC50 ([5]; negative log. of the molar concentration producing 50% of maximum action, stimulated at 90 to 120 beats/min, read-out: pD2 (converted)): 20.9 µM
other parameters measured ([6]; 0.5 mg·kg^-1 i.v.): did not vary significantly
time of the acme of the action after injection ([6]; 0.5 mg·kg^-1 i.v.): 45 min
decrease of left ventricular telediastolic pressure ([6]; 0.5 mg·kg^-1 i.v., significant): 28%
D.A.O. (aortic flow rate) modification ([6]; 1 mg·kg^-1 i.v.): +23%
V.E.S. (systolic ejection volume) modification ([6]; 1 mg·kg^-1 i.v.): +13%
time following injection during which dP/dt increased significantly ([6]; 1 mg·kg^-1 i.v.): 90 min
dP/dt+ (first derivative of the left ventricular pressure) modification ([6]; 1 mg·kg^-1 i.v., significant): +31%
increase of the dP/dt+ ([7]; 1 mg.kg^-1 intravenously): 136%
PIVG Syst. (left intraventricular pressure) modification ([7]; 5 mg·kg^-1 p.o.): +15%
D.A.O. (aortic flow rate) modification ([7]; 10 mg·kg^-1 p.o.): +27%
F.C. (heartbeat rate, cardiac frequency) modification ([7]; 10 mg·kg^-1 p.o.): +45%
PIVG Syst. (left intraventricular pressure) modification ([7]; 10 mg·kg^-1 p.o.): +26%
dP/dt+ (first derivative of the left ventricular pressure) modification ([7]; 10 mg·kg^-1 p.o.): +55%
increase of dP/dt+/P ([7]; 5 and 10 mg.kg^-1 orally (results approximately similar for both doses)): 32%

Clc1c(CN2CCN(c3ccccn3)CC2)ccc2c1OCO2 [Compound 18]
inhibition at 100 µg/mL [2]: 11%

CC(C)N(CCN1CCN(c2ccccn2)CC1)C(C)C [Compound 4]
LD50 at 168 h [1]: 95 mg/kg
Clinical symptomatology [3]: Cyanosis, starts
inhibition at 100 µg/mL [2]: 9%

c1ccc(N2CCN(CC3CCC3)CC2)nc1 [Compound 2]
LD50 at 168 h [1]: 67 mg/kg
inhibition at 100 µg/mL [2]: 7%

c1ccc(N2CCN(CCCN3CCCC3)CC2)nc1 [Compound 8]
LD50 at 168 h [1]: 142 mg/kg
inhibition at 100 µg/mL [2]: 20%
